“Also recorded” adds a separate entry of the source.
Key:
Assay type in all cases: cell-based, human
MMP-2 = MMP-2 production in SW1353 cells (ELISA, control); conditions: SW-1353; FIG. 5
Experimental: MMP-2 production can be used as control for the potential side-effects of compounds. This is because MMP-2 levels are not believed to change in response to IL-1/OSM.
(§1) The same supernatants of culture media used in the primary screen were assayed for IL-1/OSM-stimulated pro-MMP-13 production and MMP-2 production by enzyme-linked immunosorbent assay (ELISA).
(§2) For matrix metalloproteinase (MMP) measures, SW1353 cells were grown to confluence in 24 well plates, washed in DMEM (with Ham's F12) and placed in 500 ul of serum free DMEM/F-12 with 0.2% lactalbumin hydrosylate with and without OsM/IL-1. After 24 hrs, supernatants were collected and the amounts of proMMP13, totalMMP2, and proMMP1 were measured using Quantikine® ELISA kit for human MMPs (R & D systems, Minneapolis, Minn.). All MMP measures were normalized to viable cell numbers based on a tetrazolium (MTS) colorimetric measure (Promega, Madison, Wis.).
(§3) Multiple control assays were performed to investigate the selectivity of CA4 action. Matrix metalloproteinase-2 (MMP-2) production in SW1353 cells was tested. Mutation of MMP-2 causes a multicentric osteolysis and arthritis syndrome (Martignetti et al., Nat Genet 28, 261-265 (2001) the entire contents of which are incorporated herein by reference), and theoretically its expression should not be affected in treating RA. CA4 at approximately 110 nM had no effect on production of MMP-2 (FIG. 12E). An A549 Sentinel line that responded to TGF-β was then tested.

OSM signaling = assay: […] 4A1 cell line (A549) OSM-stimulated luciferase reporter assay; conditions: Homo sapiens, A549; 4A1 cell line; primary screen (Table 1); read-out: IC50, inhibition of OSM-stimulated (luciferase) reporter activity
Experimental: Cell line 4A1 was established in A549 cells (a human lung cancer cell line) using BV32, a vector that carries both the luciferase and GFP reporters. Assay development was performed to optimize the conditions of the OSM-response in the 4A1 […]® line.
Reporter activities of Sentinel® clones were measured using the Steady-Glo® Luciferase assay system (Promega, Madison, Wis.), according to the manufacturer's instructions, and were normalized to cell numbers based on nucleic acid quantification (CyQuant® cell proliferations assay, Molecular Probes/Invitrogen, Carlsbad, Calif.). In order to identify potential anti-inflammatory compounds, the OSM-responding Sentinel® clone 4A1 was used for a library screen of approximately 1800 compounds.

MMP-13 = assay: IL-1/OSM-stimulated pro-MMP-13 production in SW-1353 cells (ELISA); conditions: Homo sapiens, SW1353; SW-1353; IL-1/OSM-stimulated; secondary screen (Example 2); read-out: IC50, inhibition of MMP-13 (pro-MMP-13) production
From the text: To test the compounds identified in the preliminary reporter (luciferase) activity […]® line 4A1 screen for inhibition of OSM signaling in a more physiologically relevant environment, a human cell line involved in an inflammatory disease was adapted. The human cartilage cell line SW-1353 was selected.
In the human cartilage cell line SW-1353, while IL-1 is believed to activate expression of collagenases to a small degree and OSM is believed to have no effect on collagenase expression, a combination of IL-1 and OSM is believed to lead to a synergistic activation of collagenases to much higher levels (S. Cowell et al., Biochem J 331 (Pt 2), 453 (Apr. 15, 1998). Regulation of MMP-13 in SW-1353 cells is, therefore, believed to provide a biomarker which can be used to monitor IL-1/OSM-mediated signal transduction events in secondary assays.
as §1, §2

TGF-β = assay: A549 Sentinel line TGF-β-stimulated reporter activity; conditions: inhibitor of TGF-β receptor, control
Experimental: as §3

| IC50 (OSM signaling) [nM] | IC50 (MMP-13) [nM] | SMILES | inhibitory effect on MMP-13 expression compared to MMP-2 expression (MMP-2) | effect on TGF-β-induced reporter activity (TGF-β) |
| --- | --- | --- | --- | --- |
| 12 | 6 | CC(C)C1=CC2=CCC3[C@](C)(C(=O)O)CCC[C@@]3(C)[C@@H]2CC1 (stereo in doubt) [Abietic acid (2), abietic acid] | greater inhibitory effects on MMP-13 expression compared to MMP-2 expression; also recorded: preferentially inhibit MMP-13 expression compared to MMP-2 expression |  |
| 3300 | 600 | C=C(C)[C@H]1CC[C@@]2(C(=O)O)CC[C@@]3(C)[C@@H](CC[C@H]4[C@]5(C)CC[C@@H](O)C(C)(C)[C@H]5CC[C@@]43C)[C@H]12 (stereo in doubt) [Betulinic acid (9), betulinic acid] | greater inhibitory effects on MMP-13 expression compared to MMP-2 expression; also recorded: preferentially inhibit MMP-13 expression compared to MMP-2 expression |  |
| 2200 | 400 | CCc1oc2ccccc2c1C(=O)c1cc(Br)c(O)c(Br)c1 [Benzobromarone (8), (3,5-dibromo-4-hydroxyphenyl)(2-ethylbenzofuran-3-yl)methanone] | greater inhibitory effects on MMP-13 expression compared to MMP-2 expression; also recorded: preferentially inhibit MMP-13 expression compared to MMP-2 expression |  |
|  |  | NC(=O)c1ccc(-c2nc(-c3ccc4c(c3)OCO4)c(-c3ccccn3)[nH]2)cc1 [SB431542, reference compound] |  | able to inhibit |

Source: patent US20060276440A1, “Treatment of inflammatory disorders” (priority 2005, published 2006)
